Experimental data from patent US4698350A, “1-ethyl-6-fluoro-1,4-dihydro- 7-(2,6-dimethyl-4-pyridinyl)-4-oxo-3-quinolinecarboxylic acid and antibacterial use thereof” (Sterling Drug Inc., priority 1984, dated 1987).
Values after ≈ are worked out from the molar mass of the structure shown. Read-outs that look alike come from different tables or passages of the source.

Assays:
Campylobacter sputorum = assay: Agar dilution MIC, anaerobic microorganisms; assay type: cell-based; details: 48 h
Experimental: (§1) 1. Maintenance. Prior to use, all strains were maintained in the lyophilized state. During the study, cultures were examined on blood agar basal medium supplemented with 5.0% (v/v) defibrinated rabbit blood. Culture transfer was accomplished weekly with all cultures being incubated in an anaerobic atmosphere (GasPak jar; BBL).
(§2) 2. Agar Medium. The basal test medium consisted of trypticase soy agar (40 g), yeast extract (1 g), glucose (2 g) and 960 ml of distilled water pH 7.2. [Mashimo et al., J. Clin. Micro. 17, 187-191 (1983)]. Subsequent to sterilization and cooling to 50° C., the medium was supplemented with 4% (v/v) defibrinated rabbit blood and 0.5 μg/ml menadione (Vitamin K3) The agent under evaluation was also added at this time to the concentration desired. Subsequent to pouring of the plates, they were permitted to dry at 4° C. for 24 hr.
(§3) 3. Determination of Agent MIC. The minimal inhibitory concentration (MIC) of the various test agents was determined using an agar dilution technique. Agents and appropriate reference compounds were added to achieve a series of concentrations ranging between 32 μg/ml and 0.007 μg/ml. The inocula were prepared from 96-hr. cultures grown on the maintenance medium. Subsequent to a purity evaluation, colonies were removed and suspended in trypticase soy broth supplemented with 5 μg/ml menadione and 2% lysed rabbit blood filtrate to achieve an OD650 of 0.1 (this corresponded to approximately 10^8 cells/ml). Cultures were inoculated aerobically on the modified trypticase soy blood agar plates by use of a Steer's replicator (which delivers about 10^5 cells per spot). The plates were allowed to dry for a time not exceeding 30 min. and then incubated at 37° C. under an atmosphere of […], 10% H2 and 5% CO2 maintained in an anaerobic chamber (Coy Manufacturing Co.) for 48 hr. The MIC was defined as the lowest concentration completely inhibiting growth.
(§4) Tetracycline stock solutions (1 mg/ml) were made subsequent to dissolution in water. Stock solutions (1 mg/ml) of the remaining test compounds were made subsequent to dissolution in 1/10 N NaOH.

B. fragilis = assay: Agar dilution MIC, anaerobic microorganisms; assay type: cell-based; details: Bacteroides fragilis, 48 h
Experimental: as §1, §2, §3, §4

F. nucleatum = assay: Agar dilution MIC, anaerobic microorganisms; assay type: cell-based; details: Fusobacterium nucleatum, 48 h
Experimental: as §1, §2, §3, §4

Capnocytophaga suptigena = assay: Agar dilution MIC, anaerobic microorganisms; assay type: cell-based; details: 48 h
Experimental: as §1, §2, §3, §4

B. intermedius = assay: Agar dilution MIC, anaerobic microorganisms; assay type: cell-based; details: Prevotella intermedia, 48 h
Experimental: as §1, §2, §3, §4

B. gingivalis = assay: Agar dilution MIC, anaerobic microorganisms; assay type: cell-based; details: Porphyromonas gingivalis, 48 h
Experimental: as §1, §2, §3, §4

B. melaninogenicus = assay: Agar dilution MIC, anaerobic microorganisms; assay type: cell-based; details: 48 h
Experimental: as §1, §2, §3, §4

B. oralis = assay: Agar dilution MIC, anaerobic microorganisms; assay type: cell-based; details: Hoylesella oralis, 48 h
Experimental: as §1, §2, §3, §4

Eikenella corrodens = assay: Agar dilution MIC, anaerobic microorganisms; assay type: cell-based; details: 48 h
Experimental: as §1, §2, §3, §4

F. polymorphum = assay: Agar dilution MIC, anaerobic microorganisms; assay type: cell-based; details: 48 h
Experimental: as §1, §2, §3, §4

Wolinella recta = assay: Agar dilution MIC, anaerobic microorganisms; assay type: cell-based; details: Campylobacter rectus, 48 h
Experimental: as §1, §2, §3, §4

A. viscosus = assay: Agar dilution MIC, anaerobic microorganisms; assay type: cell-based; details: Actinomyces viscosus, 48 h
Experimental: as §1, §2, §3, §4

A. actinomycetemcomitans = assay: Agar dilution MIC, anaerobic microorganisms; assay type: cell-based; details: Aggregatibacter actinomycetemcomitans, 48 h
Experimental: as §1, §2, §3, §4

[1] = system: all thirteen of the target anaerobic microorganisms; assay: Antimicrobial activity against anaerobic microorganisms; assay type: cell-based
Experimental: as §1, §2, §3, §4

periodontal diseases = details: cited from earlier work; for usefulness in treating periodontal disease (in words): Genco 1981
[2] = Capnocytophaga suptigena, read-out: MIC
[3] = B. melaninogenicus, read-out: MIC
[4] = A. actinomycetemcomitans, read-out: MIC

Row | Compound | MIC (Campylobacter sputorum) | MIC (B. fragilis; B. fragilis, read-out: MIC) | MIC (F. nucleatum; F. nucleatum, read-out: MIC) | MIC (Capnocytophaga suptigena; [2]) | MIC (B. intermedius; B. intermedius, read-out: MIC) | MIC (B. gingivalis; B. gingivalis, read-out: MIC) | MIC (B. melaninogenicus; [3]) | MIC (B. oralis; B. oralis, read-out: MIC) | MIC (Eikenella corrodens; read-out: MIC) | MIC (F. polymorphum; F. polymorphum, read-out: MIC) | MIC (Wolinella recta) | MIC (A. viscosus; A. viscosus, read-out: MIC) | MIC (A. actinomycetemcomitans; [4]) | antimicrobial activity (in words) [1] | usefulness in treating periodontal disease (in words) (periodontal diseases) | activity against microorganisms considered to participate in periodontal disease (in words) (periodontal diseases) | also measured
1 | CCn1cc(C(=O)O)c(=O)c2cc(F)c(N3CCNCC3)cc21 [50,297, 1-ethyl-6-fluoro-1,4-dihydro-4-oxo-7-(1-piperazinyl)-3-quinolinecarboxylicacid] | 2 µg/mL (≈ 6.26 µM) | > 10 µg/mL | 8 µg/mL (≈ 25.1 µM) | 0.5 µg/mL (≈ 1.57 µM) | 0.5 µg/mL (≈ 1.57 µM) | 4 µg/mL (≈ 12.5 µM) | 4 µg/mL (≈ 12.5 µM) | 4 µg/mL (≈ 12.5 µM) | 4 µg/mL (≈ 12.5 µM) | > 10 µg/mL | 0.12 µg/mL (≈ 0.376 µM) | > 10 µg/mL | 0.06 µg/mL (≈ 0.188 µM) | less active |  |  | 
2 | CCn1cc(C(=O)O)c(=O)c2ccc(-c3ccncc3)cc21 [35,213, 1-ethyl-1,4-dihydro-4-oxo-7-(4-pyridinyl)-3-quinolinecarboxylic acid] | > 10 µg/mL | > 10 µg/mL | > 10 µg/mL | 1 µg/mL (≈ 3.4 µM) | 0.5 µg/mL (≈ 1.7 µM) | > 10 µg/mL | 8 µg/mL (≈ 27.2 µM) | > 10 µg/mL | 8 µg/mL (≈ 27.2 µM) | > 10 µg/mL | 0.5 µg/mL (≈ 1.7 µM) | > 10 µg/mL | 0.12 µg/mL (≈ 0.408 µM) |  |  |  | 
3 | Cc1ncc([N+](=O)[O-])n1CCO [metronidazole] |  |  |  |  |  |  |  |  |  |  |  |  |  |  | particularly useful | not active against all the microorganisms | 
4 | CN(C)C1C(=O)C(C(N)=O)=C(O)C2(O)C(=O)C3=C(O)c4c(O)cccc4C(C)(O)C3CC12 (centres unmarked) [9,424] |  |  |  |  |  |  |  |  |  |  |  |  |  |  | particularly useful | not active against all the microorganisms | MIC (B. fragilis): 1 µg/mL (≈ 2.25 µM); MIC (F. nucleatum): 0.75 µg/mL (≈ 1.69 µM); MIC (Capnocytophaga suptigena; Capnocytophaga): 1 µg/mL (≈ 2.25 µM); MIC (B. intermedius): 2 µg/mL (≈ 4.5 µM); MIC (B. gingivalis): 0.12 µg/mL (≈ 0.27 µM); MIC (B. melaninogenicus): 0.5 µg/mL (≈ 1.13 µM); MIC (B. oralis): 0.12 µg/mL (≈ 0.27 µM); MIC (Eikenella corrodens): 2 µg/mL (≈ 4.5 µM); MIC (F. polymorphum): 0.12 µg/mL (≈ 0.27 µM); MIC (A. viscosus): 2 µg/mL (≈ 4.5 µM); MIC (A. actinomycetemcomitans): 1 µg/mL (≈ 2.25 µM)
5 | CCn1cc(C(=O)O)c(=O)c2cc(F)c(N3CCN(C)CC3)cc21 [50,150, 1-ethyl-6-fluoro-1,4-dihydro-7-(4-methyl-1-piperazinyl)-4-oxo-3-quinolinecarboxylic acid] | 4 µg/mL (≈ 12 µM) | 8 µg/mL (≈ 24 µM) | 8 µg/mL (≈ 24 µM) | 0.25 µg/mL (≈ 0.75 µM) | 0.5 µg/mL (≈ 1.5 µM) | 4 µg/mL (≈ 12 µM) | 4 µg/mL (≈ 12 µM) | 4 µg/mL (≈ 12 µM) | 4 µg/mL (≈ 12 µM) | 8 µg/mL (≈ 24 µM) | 0.25 µg/mL (≈ 0.75 µM) | > 10 µg/mL | 0.06 µg/mL (≈ 0.18 µM) | less active |  |  | 
